Assay results: patent publication US8530461B2 (Boehringer Ingelheim International GmbH, priority 2011, dated 2013)

Biological target: T1, human ACC2 (Homo sapiens, UniProt O00763)
T1 construct: made in house; host or cells: insect cells (baculoviral expression system)
Experiment: ACC2 assay, spectrophotometric 384 well assay (NADH-linked, coupled lactate dehydrogenase/pyruvate kinase)
Assay type: biochemical
Settings: ACC2 assay; human ACC2 construct lacking 128 N-terminal amino acids; 25° C., 340 nm, 15 minutes; read-out: IC50
Protocol: Spectrophotometric 384 Well Assay
Malonyl CoA formation by acetyl CoA carboxylases is stoichometrically linked to the consumption of ATP. ACC2 activity is measured in a NADH-linked kinetic method measuring ADP generated during the ACC reaction using a coupled lactate dehydrogenase/pyruvate kinase reaction.
For biological testing, a human ACC2 construct which lacks the 128 amino acids at the N-terminus for increased solubility (nt 385-6966 in Genbank entry AJ575592) is cloned. The protein is then expressed in insect cells using a baculoviral expression system. Protein purification is performed by anion exchange.
All compounds are dissolved in dimethyl sulfoxide (DMSO) to a concentration of 10 mM.
Assay reactions are then carried out in 384-well plates, with hACC2 in an appropriate dilution and at final assay concentrations (f.c.) of 100 mM Tris (pH 7.5), 10 mM trisodium citrate, 25 mM KHCO3, 10 mM MgCl2, 0.5 mg/ml BSA, 3.75 mM reduced L-glutathione, 15 U/ml lactate dehydrogenase, 0.5 mM phosphoenolpyruvate, 15 U/ml pyruvate kinase, compounds at different concentrations at final DMSO concentrations of 1%.
The enzymatic reaction is then started by addition of a mixture of NADH, acetyl Coenzyme A (both […].) and ATP (500 uM f.c.). The decrease of the optical density (slope S) is then determined at 25° C. at a wavelength of 340 nm over 15 minutes in a spectrophotometric reader.
Each assay microtiter plate contains wells with vehicle instead of compound as controls for the non-inhibited enzyme (100% CTL; ‘HIGH’) and wells without acetyl-CoA as controls for non-specific NADH degradation (0% CTL; ‘LOW’).
The slope S is used for calculation of % CTL=(S(compound)−S(‘LOW’))/(S(‘HIGH’)−S(‘LOW’))100. Compounds will give values between 100% CTL (no inhibition) and 0% CTL (complete inhibition).
For IC50 value determination, the sample slope in the presence of the test compound after subtraction of the low controls (S(compound)−S(‘LOW’)) are used.
An IC50 value is derived from the compound slopes at different dosages after subtraction of the low controls (S(compound)−S(‘LOW’)) by non-linear regression curve fitting (equation y=(A+((B−A)/(1+((C/x)^D))))).

T1 sequence (O00763 129-2458 limits assumed): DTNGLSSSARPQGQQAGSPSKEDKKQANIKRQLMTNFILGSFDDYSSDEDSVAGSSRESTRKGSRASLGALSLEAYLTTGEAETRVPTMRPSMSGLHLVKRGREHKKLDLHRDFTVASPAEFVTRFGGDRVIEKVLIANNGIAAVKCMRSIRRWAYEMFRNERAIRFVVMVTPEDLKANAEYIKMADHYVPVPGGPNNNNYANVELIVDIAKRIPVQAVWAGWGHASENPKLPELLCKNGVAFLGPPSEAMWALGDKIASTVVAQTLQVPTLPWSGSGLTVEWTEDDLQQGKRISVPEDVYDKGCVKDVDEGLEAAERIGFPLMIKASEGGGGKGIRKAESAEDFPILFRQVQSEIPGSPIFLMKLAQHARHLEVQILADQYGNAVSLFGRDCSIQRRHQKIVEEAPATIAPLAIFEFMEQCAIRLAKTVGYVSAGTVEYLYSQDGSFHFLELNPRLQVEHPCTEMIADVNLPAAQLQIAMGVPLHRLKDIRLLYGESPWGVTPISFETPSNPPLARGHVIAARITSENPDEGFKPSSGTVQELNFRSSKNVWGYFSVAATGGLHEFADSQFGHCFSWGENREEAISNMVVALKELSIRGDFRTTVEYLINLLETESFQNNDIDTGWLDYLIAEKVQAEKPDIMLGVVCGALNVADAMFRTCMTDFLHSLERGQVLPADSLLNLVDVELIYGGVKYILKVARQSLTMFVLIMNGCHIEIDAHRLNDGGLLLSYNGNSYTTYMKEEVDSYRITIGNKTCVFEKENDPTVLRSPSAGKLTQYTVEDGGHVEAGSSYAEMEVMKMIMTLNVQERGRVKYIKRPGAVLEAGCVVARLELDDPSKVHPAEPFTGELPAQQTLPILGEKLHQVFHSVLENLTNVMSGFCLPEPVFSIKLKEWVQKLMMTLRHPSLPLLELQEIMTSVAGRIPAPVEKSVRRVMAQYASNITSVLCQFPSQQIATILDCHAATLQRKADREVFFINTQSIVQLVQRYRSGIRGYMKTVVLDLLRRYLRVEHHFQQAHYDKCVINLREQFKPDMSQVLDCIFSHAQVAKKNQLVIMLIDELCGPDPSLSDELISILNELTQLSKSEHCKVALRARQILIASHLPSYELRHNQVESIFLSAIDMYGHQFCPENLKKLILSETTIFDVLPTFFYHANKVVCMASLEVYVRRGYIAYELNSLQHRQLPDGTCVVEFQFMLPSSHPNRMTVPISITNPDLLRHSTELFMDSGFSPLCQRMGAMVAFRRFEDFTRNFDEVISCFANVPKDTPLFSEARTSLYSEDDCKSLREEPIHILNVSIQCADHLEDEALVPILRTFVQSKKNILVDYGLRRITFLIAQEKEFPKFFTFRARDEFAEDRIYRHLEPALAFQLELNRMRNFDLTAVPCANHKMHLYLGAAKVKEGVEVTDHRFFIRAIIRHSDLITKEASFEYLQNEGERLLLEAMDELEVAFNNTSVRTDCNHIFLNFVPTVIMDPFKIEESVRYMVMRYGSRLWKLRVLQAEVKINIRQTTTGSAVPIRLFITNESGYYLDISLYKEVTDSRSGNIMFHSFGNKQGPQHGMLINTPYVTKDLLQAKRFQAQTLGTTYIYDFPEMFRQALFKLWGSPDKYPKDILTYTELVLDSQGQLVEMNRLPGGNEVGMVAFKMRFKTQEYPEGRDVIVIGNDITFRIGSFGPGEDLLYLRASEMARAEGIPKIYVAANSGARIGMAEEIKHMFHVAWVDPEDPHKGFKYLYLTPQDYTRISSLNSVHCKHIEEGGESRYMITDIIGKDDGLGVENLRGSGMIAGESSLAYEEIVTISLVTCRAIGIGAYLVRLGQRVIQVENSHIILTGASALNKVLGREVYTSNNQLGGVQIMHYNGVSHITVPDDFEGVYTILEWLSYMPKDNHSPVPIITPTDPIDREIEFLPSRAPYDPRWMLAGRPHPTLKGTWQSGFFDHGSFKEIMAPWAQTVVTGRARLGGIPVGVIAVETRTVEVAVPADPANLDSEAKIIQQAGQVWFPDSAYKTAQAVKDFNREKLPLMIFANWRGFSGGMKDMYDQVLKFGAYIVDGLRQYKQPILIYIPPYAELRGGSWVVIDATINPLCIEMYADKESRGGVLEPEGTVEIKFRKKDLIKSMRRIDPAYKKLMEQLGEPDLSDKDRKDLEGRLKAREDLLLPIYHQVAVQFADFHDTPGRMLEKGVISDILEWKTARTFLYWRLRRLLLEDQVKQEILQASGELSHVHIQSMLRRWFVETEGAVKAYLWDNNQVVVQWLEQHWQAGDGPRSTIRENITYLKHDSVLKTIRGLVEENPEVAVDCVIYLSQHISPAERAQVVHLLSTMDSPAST

SMILES	IC50 [nM]
CCOc1ccc(OC2CN(c3ccc([C@H](C)NC(=O)c4cnco4)cc3)C2)cc1 [Example 1.37]	170
CCOc1ccc(OC2CN(c3ccc([C@H](C)NC(=O)NC)cc3)C2)cc1 [Example 4.3]	1000
CCNC(=O)N[C@@H](C)c1ccc(N2CC(Oc3ccc(OCC4CC4)cc3)C2)cc1 [Example 4.16]	280
CCOc1ccc(OC2CN(c3ccc([C@H](C)NC(=O)C4CC(OC)C4)cc3)C2)cc1 (some centres unmarked) [Example 1.19]	590
CCC(=O)N[C@@H](C)c1ccc(N2CC(Oc3ccc(OCC4CC4)cc3)C2)cc1 [Example 1.88]	100
CCOc1ccc(OC2CN(c3ccc([C@H](C)NC(=O)C4CCCC4)cc3)C2)cc1 [Example 1.8]	550
CCOc1ccc(OC2CN(c3ccc([C@H](C)NC(=O)CCC#N)cc3)C2)cc1 [Example 1.80]	1060
CCOc1ccc(OC2CN(c3ccc([C@H](C)NC(=O)Cc4cc(C)no4)cc3)C2)cc1 [Example 1.54]	540
CCNC(=O)N[C@@H](C)c1ccc(N2CC(Oc3ccc(OCC)cc3)C2)cc1 [Example 4.2]	1540
C[C@H](NC(=O)N(C)C1CC1)c1ccc(N2CC(Oc3ccc(OCC4CC4)cc3)C2)cc1 [Example 4.17]	1130
CCOc1ccc(OC2CN(c3ccc([C@H](C)NC(=O)c4cn(C)cn4)cc3)C2)cc1 [Example 1.33]	2520
CCOc1ccc(OC2CN(c3ccc([C@H](C)NC(=O)C4(C#N)CC4)cc3)C2)cc1 [Example 1.18]	340
CCOc1ccc(OC2CN(c3ccc([C@H](C)NC(=O)C(C)F)cc3)C2)cc1 (some centres unmarked) [Example 1.43]	320
CCOc1ccc(OC2CN(c3ccc([C@H](C)NC(=O)c4cn[nH]c4)cc3)C2)cc1 [Example 1.11]	210
CCOc1ccc(OC2CN(c3ccc([C@H](C)NC(=O)Nc4cc[nH]n4)cc3)C2)cc1 [Example 4.7]	2310

Other lines, results leading:

IC50 [nM]	SMILES
650	CC(=O)N[C@@H](C)c1ccc(N2CC(Oc3cccc(OCC4CC4(F)F)n3)C2)cc1 (some centres unmarked) [Example 12.18]
2240	CC(=O)N[C@@H](C)c1ccc(N2CC(Oc3cc(OCc4ccccc4)ccn3)C2)cc1 [Example 8.7, (S)—N-(1-{4-[3-(4-Benzyloxy-pyridin-2-yloxy)-azetidin-1-yl]-phenyl}-ethyl)-acetamide]
910	CC(=O)NC(C)(C)c1ccc(N2CC(Oc3ccc(OCC4CC4)cc3)C2)cc1 [Example 15.1, N-(1-{4-[3-(4-Cyclopropylmethoxy-phenoxy)-azetidin-1-yl]-phenyl}-1-methyl-ethyl)-acetamide]
450	CC(=O)N[C@@H](C)c1ccc(N2CC(Oc3cccc(C4CC4)n3)C2)cc1 [Example 12.10]
100	CC(=O)N[C@@H](C)c1ccc(N2CC(Oc3ccc4oc(C)cc4c3)C2)cc1 [Example 10.11]
90	CCOc1ccc(OC2CN(c3ccc([C@H](C)NC(C)=O)cc3)C2)cc1 [Example 9.2]
270	CC(=O)N[C@@H](C)c1ccc(N2CC(Oc3ccnc(O[C@@H]4CCOC4)c3)C2)cc1 [Example 11.2]
380	COc1cccc(OC2CN(c3ccc([C@H](C)NC(C)=O)cc3)C2)n1 [Example 14.1, (S)—N-(1-{4-[3-(6-Methoxy-pyridin-2-yloxy)-azetidin-1-yl]-phenyl}-ethyl)-acetamide]
780	CC(=O)N[C@@H](C)c1ccc(N2CC(Oc3ccc(OC(F)(F)F)cc3)C2)cc1 [Example 10.2]
300	CCOc1c(F)cc(OC2CN(c3ccc([C@H](C)NC(C)=O)cc3)C2)cc1F [Example 10.31]
110	CCOc1ccc(OC2CN(c3ccc([C@H](C)NC(=O)c4sc(NC(C)=O)nc4C)cc3)C2)c(F)c1 [Example 8.4, (S)-2-Acetylamino-4-methyl-thiazole-5-carboxylic acid (1-{4-[3-(4-ethoxy-2-fluoro-phenoxy)-azetidin-1-yl]-phenyl}-ethyl)-amide]
